For orientation: IC50 means the point on the concentration scale where inhibition reaches its midpoint. As usually defined, the solubility is the dissolved amount per volume that the medium holds. A high value points to much dissolved substance.

The structures appear in SMILES notation. In brackets after ≈: the same amount, converted by molar mass. Entries after “also recorded” stand apart in the source; their conditions may differ. Where two headings read alike, the source gives them in different places. Some results are limits rather than exact numbers.

The test system of one data set is HssRS. As to the kind of experiment: microbe, parasite or virus in culture. It counts as cell-based, S. aureus. The settings on record: for EC50: Staphylococcus aureus, 6 h; for Efficacy: percent activation of HssRS compared to 1 at 50 μM, error one standard deviation; for HssRS activation (in words): summary statements, concentration not fixed; for HssRS activation in single point screen: 50 μM, fraction of activation relative to 1, cut-off 0.05, in words. The method, then:
Previously reported strains were used.^11 Cultures grown overnight in 5 ml TSB with 10 μg mL^−1 chloramphenicol for 15-18 h were subcultured 1:100 into 0.5 mL TSB with 10 μg mL^−1 chloramphenicol containing compound and incubated at 37° C., 180 rpm for 6 h. Cells were washed and lysed as previously described. 200 μL of a 200 μM catechol solution in 100 mM potassium phosphate (pH 8.0) was added to 20 μL of lysate and the oxidation of catechol was followed by monitoring absorbance at 375 nm for 10 min. Samples were normalized to protein concentration as determined by BCA assay (Pierce).
The above XylE procedure was followed using different concentrations of compound. The data were then entered into Graphpad Prism 6 and fit to a curve to determine EC50 values.
HssRS activation. The library was screened for activation of the heme stress response as an indicator for activation of heme biosynthesis in S. aureus. We began by screening at the single point concentration of 50 μM using a previously described reporter assay (FIG. 4).^11 In this assay, Newman harboring a plasmid with the hrt promoter fused to xylE, a gene encoding a catechol oxidase, is treated with compound for six hours, the bacteria lysed, and the oxidation of catechol by XylE quantified by spectrophotometry. An increase in absorbance due to the oxidation of catechol indicates elevated levels of xylE transcription and hrt promoter activity. Results are expressed as the fraction of activation of HssRS by the compound compared to 1. […] With reference to FIG. 8, activation of HssRS by 3a and 3b at 50 μM. Activity is presented as the fraction of activation by the indicated derivative relative to 1 at 50 μM.

In data set [1] the test system is wild type S. aureus strain Newman. Description: Growth inhibition IC50, Newman anaerobic (fermenting). It counts as cell-based. As to conditions: for IC50: Staphylococcus aureus, NEWMAN, 9 h of growth, anaerobic chamber, 95% confidence interval, >60 μM considered nontoxic; for toxicity to fermenting / anaerobic S. aureus (in words): anaerobic Newman and ΔmenB, from IC50 data. The method, then: (§1) Cultures of wild type S. aureus strain Newman and ΔmenB^14 were grown in aeration tubes aerobically at 37° C. with shaking for 15-18 h. Anaerobic cultures were prepared by growing bacteria at 37° C. without shaking in an anaerobic chamber for 15-18 h. Bacteria from each condition were subcultured 1:100 into TSB containing various concentrations of compound in a 96 well plate. Aerobic wild type and ΔmenB plates are incubated aerobically at 37° C. with shaking while anaerobic plates were grown in an anaerobic chamber (Coy) at 37° C. without shaking. The absorbance at 600 nm (OD600) was determined after 9 h of growth and the fraction of growth at each compound concentration is determined by dividing the OD600 by the vehicle control (DMSO) value. IC50s were calculated using Graphpad Prism 6 and errors are reported as 95% confidence intervals.
(§2) Wild type S. aureus strain Newman was grown in an anaerobic chamber in appropriate media to ensure exclusion of terminal electron acceptors sufficient to force the bacteria to ferment. […] The arbitrary cut off point for toxicity of 60 μM was chosen as many of the compounds were not entirely soluble above this concentration.

The test system of another data set is ΔmenB. As to the kind of experiment: Growth inhibition IC50, ΔmenB. Format: cell-based, S. aureus. The settings on record: Staphylococcus aureus, 9 h, read-out: IC50 ΔmenB. The method, then:
as §1, with “intervals. […]” for “intervals.”

Data set [2] concerns S. aureus. As to conditions: earlier method, low cell density; cited from earlier work.
For data set [3], the system named is wild type S. aureus strain Newman. As to the kind of experiment: Growth inhibition IC50, Newman aerobic. As to conditions: 95% confidence interval, >60 μM considered nontoxic. Format: cell-based. The method, then: as §1, §2
For data set [4], the system named is S. aureus. As to the kind of experiment: Heme adaptation assay. It counts as cell-based. As to conditions: subculture into 20 μM heme. The method, then: Overnight cultures of S. aureus were subcultured into 500 μL TSB containing compound in 1.5 mL tubes and incubated at 37° C. with shaking for 15 h. Bacteria from the compound treated cultures were then subcultured 1:100 into 100 μL TSB containing heme and incubated at 37° C. with shaking for 8 h. Growth was monitored by reading the OD600 on a Biotek microplate reader at the defined time intervals.
Finally, the top activators were assayed for their ability to preadapt S. aureus to heme as an indication that they can activate HssRS outside the context of a reporter assay. Pretreatment of cultures with a compound that induces HrtAB expression through activation of HssRS at subtoxic concentrations allows the bacteria to survive and grow when subcultured into a toxic concentration of heme. Pretreatment with 4 μM heme, 40 μM 1, and vehicle with 40 μM of each of the top activators were compared (excluding 2d because of toxicity). All derivatives were able to preadapt S. aureus to a toxic concentration of heme (20 μM) as well as 4 μM heme and 40 μM 1 (FIG. 5). The discrepancy between XylE assay and heme adaptation activity is likely due to the length of treatment with compound (6 h vs. 15 h).

Another data set in a line: Solubility limit. Format: physicochemical.
The test system of data set [5] is heme biosynthetic pathway. Description: Accumulation of heme precursor molecules. The settings on record: data not shown. It counts as cell-based, S. aureus. The source says:
Because ALA is the first committed precursor molecule in the heme biosynthetic pathway, if ALA is contacted with bacteria, the bacteria will generated enhanced amounts of all of the heme precursor molecules downstream of ALA.

The mark [6] stands for this setting: Staphylococcus aureus, NEWMAN, 9 h, read-out: IC50 Newman aerobic, 9 h of growth, aerobic.

In the case of `Oc1c(-c2cc(-c3ccco3)[nH]n2)ccc2ccccc12` [Compound 1], the EC50 was 11.6 µM in the data set on HssRS and 12.6 µM in the data set with HssRS (read-out: pEC50 (converted)). In the data set with HssRS, this compound registered an Efficacy of 100%. Besides, the figures for the IC50 (in data set [1]; in the data set with ΔmenB; in data set [3] (setting [6])) were 13.5 µM, 1.66 µM and more than 60 µM, respectively. Moreover, the “toxicity to fermenting / anaerobic S. aureus (in words)” value in data set [1] is on record as “intermediate between the two”. Moreover, the “anaerobic toxicity (previously reported)” value with S. aureus [2] was “toxic to S. aureus growing anaerobically”.

Consider `Oc1ccccc1-c1cc(-c2ccccc2O)[nH]n1` [Compound 2d, 2,2′-(1H-pyrazole-3,5-diyl)diphenol], for which the EC50 in the data set with HssRS is 5.81 µM; with HssRS (read-out: pEC50 (converted)), 5.75 µM. For the same compound, the IC50 in data set [1] was found to be 15.8 µM; with ΔmenB, 9.33 µM; in data set [3] (setting [6]) it was 42.2 µM; in data set [3] (read-out: IC50 Newman aerobic, 9 h of growth, aerobic) it was 42.5 µM. The “toxicity to fermenting / anaerobic S. aureus (in words)” value in data set [1] is reported as “anaerobic toxicity similar to 1; also recorded: exhibits both activities”. The “preadaptation to heme toxicity” value with S. aureus [4] (pretreatment 20 μM compound) was “excellent preadaptation to heme toxicity”.

In the case of `Oc1ccccc1-c1cc(-c2ccncc2)[nH]n1` [Compound 2i], the IC50 (in data set [1]; in the data set on ΔmenB; in data set [3] (setting [6])) was more than 60 µM throughout. Further, the “preadaptation to heme toxicity” value in the data set with S. aureus [4] (pretreatment 40 μM compound) was “indistinguishable from vehicle”.

`COc1ccccc1-c1cc(-c2ccccc2)[nH]n1` [Compound 3a, 3-(2-methoxyphenyl)-5-phenyl-1H-pyrazole]: the “HssRS activation (in words)” value in the data set on HssRS is recorded as “removes HssRS activity”. The IC50 in data set [1] is 20.8 µM; in the data set on ΔmenB, 24.9 µM; in data set [3] (setting [6]), more than 60 µM. For the same compound, the “toxicity to fermenting / anaerobic S. aureus (in words)” value in data set [1] was “maintaining toxicity”. For the same compound, the “preadaptation to heme toxicity” value with S. aureus [4] (pretreatment 40 μM compound) is recorded as “indistinguishable from vehicle”.

Regarding `O=C(Nc1ccccc1-c1cc(-c2ccco2)[nH]n1)c1cc(Cl)cc(Cl)c1` [Compound 1i, 3,5-dichloro-N-(2-(5-(furan-2-yl)-1H-pyrazol-3-yl)phenyl)benzamide], the IC50 is 19.6 µM in data set [1], 8.69 µM in the data set on ΔmenB and more than 60 µM in data set [3] (setting [6]). In addition, the “preadaptation to heme toxicity” value with S. aureus [4] (pretreatment 40 μM compound) is “indistinguishable from vehicle”.

For `CCCCCc1cc(-c2ccccc2O)n[nH]1` [Compound 2o, 2-(5-pentyl-1H-pyrazol-3-yl)phenol], the results for the IC50 (in data set [1]; in the data set with ΔmenB; in data set [3] (setting [6])) were 11.6 µM, 13.2 µM and 48.6 µM, respectively. The “toxicity to fermenting / anaerobic S. aureus (in words)” value in data set [1] is recorded as “comparably toxic to 1”. For the same compound, in the data set on S. aureus [4] (pretreatment 40 μM compound), the “preadaptation to heme toxicity” value is “indistinguishable from vehicle”.

Consider `Oc1ccccc1-c1cc(-c2cccs2)[nH]n1` [Compound 2a, 2-(5-(thiophen-2-yl)-1H-pyrazol-3-yl)phenol], for which the Efficacy in the data set on HssRS is reported as 17.0 ± 2.9%. Moreover, the IC50 (in data set [1]; in the data set on ΔmenB; in data set [3] (setting [6])) was more than 60 µM throughout. The solubility in “Solubility limit” was approximately 80 µM (≈ 19.4 µg/mL).

Consider `NCC(=O)CCC(=O)O` [ALA, reference compound], for which the “accumulation of PBG” value in data set [5] was “results in accumulation of PBG”.

Consider `Oc1ccccc1-c1cc(-c2cc(F)ccc2F)[nH]n1` [Compound 2f, 2-(5-(2,5-difluorophenyl)-1H-pyrazol-3-yl)phenol], for which, in the data set on HssRS, the “HssRS activation in single point screen” value is reported as “comparable to 1a in activity”. Moreover, the EC50 in the data set on HssRS was 13.6 µM; in the data set on HssRS (read-out: pEC50 (converted)), 12.6 µM. The compound further showed a drop in efficacy with HssRS (compared to 1) of approximately 70%. Further, in the data set with HssRS, the Efficacy is reported as 30.1 ± 8.0%. For the same compound, the concentration for half-maximal inhibition (IC50) (in data set [1]; with ΔmenB; in data set [3] (setting [6])) was more than 60 µM in each case. Also, the “toxicity to fermenting / anaerobic S. aureus (in words)” value in data set [1] is “eliminates this toxicity”.

Regarding `Oc1ccccc1-c1cc(-c2ccccc2)[nH]n1` [Compound 2c, 2-(5-phenyl-1H-pyrazol-3-yl)phenol], in the data set on HssRS, the “HssRS activation in single point screen” value is listed as “restore activity comparable to 1”, the EC50 was determined as 14.6 µM, the Efficacy is 87.8 ± 23.7% and the “HssRS activation (in words)” value is given as “maintains HssRS activity”. Moreover, in the data set on HssRS (read-out: pEC50 (converted)), the EC50 was 21.9 µM. In data set [1], it took 24 µM to reach half-maximal inhibition (IC50) and the “toxicity to fermenting / anaerobic S. aureus (in words)” value is “anaerobic toxicity similar to 1; also recorded: restores toxicity comparable to 1”. Besides, in the data set on ΔmenB, the IC50 was found to be 25.2 µM. The IC50 in data set [3] (Staphylococcus aureus, NEWMAN, 9 h of growth, aerobic, read-out: IC50 Newman aerobic) was more than 60 µM.

`Oc1ccccc1-c1cc[nH]n1` [Compound 2j, 2-(1H-pyrazol-3-yl)phenol]: in the data set on HssRS, the “HssRS activation in single point screen” value is “eliminates activity compared to 1 and 1a”. The IC50 (in data set [1]; in the data set with ΔmenB; in data set [3] (setting [6])) was more than 60 µM throughout. Besides, the “toxicity to fermenting / anaerobic S. aureus (in words)” value in data set [1] is “nontoxic under all conditions”.

Consider `Cn1nc(-c2ccco2)cc1-c1ccc2ccccc2c1O` [Compound 4a, 2-(3-(furan-2-yl)-1-methyl-1H-pyrazol-5-yl)naphthalen-1-ol], for which the “HssRS activation in single point screen” value with HssRS is listed as “complete loss of activity”. Besides, the results for the IC50 (in data set [1]; with ΔmenB; in data set [3] (setting [6])) were 26.5 µM, 15.7 µM and more than 60 µM, respectively. The “toxicity to fermenting / anaerobic S. aureus (in words)” value in data set [1] is recorded as “maintains toxicity comparable to the parent molecule”. In addition, the “toxicity relative to 4b” value in data set [1] (fermenting wildtype S. aureus and ΔmenB) is given as “approximately five times less toxic”.

(Values after US9867879B2 (Vanderbilt University, priority 2015, dated 2018).)
